Results published in patent US10076511B2, “Bisamide derivative of dicarboxylic acid as an agent for stimulating tissue regeneration and recovery of diminished tissue function” (TREAMID GmbH, priority 2015, dated 2018).
Several values for one entry are separate records, joined by “and”; a condition that tells them apart may be missing. Identical values can stand only once.

Columns and labels:
male rats = assay type: in vivo, rat; details: Day 45 and Day 65
Protocol: The latter was simulated by a single injection of cytostatic drug Paclitaxel (Mitotax, Dr. Reddy's, India) to male rats (3 months of age). The choice of the drug was due to the fact that it is one of the medications that damage the precursors of spermatogenesis—stem cells.
Paclitaxel was administered to the animals of the control and test groups once intravenously at the maximum tolerated dose of 7.6 mg/kg. Treamid was administered to the animals of the experimental groups intragastrically at a dose of 5 mg/kg in the form of a suspension in 2% starch mucus for 15 days a month after the administration of Paclitaxel. The control animals received an equivalent volume of the solvent (2% starch mucus), instead of the test compound. […]
On Day 1 (in 24 hours), as well as on Day 45 and Day 65 after the administration of Paclitaxel, the animals were euthanized, and the preparations of their testes were made. Further, the content of progenitor cells of spermatogenesis in the testes was determined by an in vitro cloning method. […] Then, the nonadherent fraction of cells was collected, and the number of cells (cells/ml) was counted in the Goriaev chamber. […] After the incubation, the number of colony-forming units, spermatogenic (CFU-Sp)—clusters of more than 30 cells of round shape and of various diameters—was counted. […]

male C57BL/6 mice = experiment: Bleomycin-induced pulmonary fibrosis model; assay type: in vivo, mouse; details: Day 21; 10 mg/kg
Protocol: Toxic damage of the lung alveolar epithelium causing pulmonary fibrosis was simulated by intra-tracheal administration of the cytostatic bleomycin once in a dose of 80 μg/mouse in 30 μl of physiological saline. Anesthesia during the operation was achieved by using inhalation ether. The surgical field was disinfected with a 70% ethanol solution and hair on this field was removed. The skin, subcutaneous tissue and own fascia of the neck were dissected along the middle line of the neck. The muscles were moved apart on the ventral side of the trachea by the method of blunt separation of tissues. Injection of bleomycin was made on inhalation along the airflow by a Hamilton syringe. After suturing the wound, the surgical field was treated with an antiseptic. The administration of bleomycin was taken as Day 0 of the experiment.
The effectiveness of Treamid and the reproduction of pulmonary fibrosis were estimated by the number and intensity of the synthesis of connective tissue in the lungs, as well as by the histoarchitectonics of the lungs.
Thus, the staining of histological preparations of the lungs of C57BL/6 mice with picrofuxin according to Van Gieson and subsequent visualization of the connective tissue made it possible to register a significant proliferation of the connective tissue, mainly around the vessels and bronchioles (FIG. 5, Table 36). In addition, lung homogenates of the animals of the intact control and pathological control were investigated by enzyme immunoassay.

male Wistar rats = experiment: Sperm motility in hypogonadotropic hypogonadism simulated with Synestrol; assay type: in vivo, rat; details: Synestrol 50 U/kg/day, Treamid 0.5 mg/kg or Tribestan 70 mg/kg intraperitoneally Day 31-45
Protocol: Hypogonadotropic hypogonadism was simulated by the administration of Synestrol. Estrogens are able to inhibit the secretion of LH (Luteinizing hormone) and FSH (follicle stimulating hormone). An increase in the concentration of estrogens in a male body is accompanied by an increase in the content of sex-steroid-binding globulins, which leads to a decrease in the concentration of free testosterone and to the appearance of asthenospermia.
Experiments were performed on 36 male Wistar rats (3 months of age). For 30 days after the beginning of the experiment, all male rats (except for the background group) were intramuscularly injected with Synestrol at a dose of 50 U/kg/day. Further, from Day 31 to Day 45 of the experiment, the animals of the experimental group, in addition to Synestrol, were intraperitoneally administered Treamid at dose of 0.5 mg/kg or reference drug Tribestan at a dose of 70 mg/kg. The effectiveness of Treamid was estimated by the number of motile sperm forms (percentage of motile sperm forms) isolated from the epididymis. The results of the studies were compared with those for the administration of Synestrol (control) and reference drug Tribestan.

Compound: O=C(CCCC(=O)NCCc1ncc[nH]1)NCCc1ncc[nH]1 [Treamid]
- increase in the number of colony-forming cells compared with the cytostatic control (male rats): 44-48%
- Hydroxyproline (μg/ml) in the lungs (male C57BL/6 mice): 27.97 ± 2.2 µg/mL
- The content of connective tissue (%) in the lungs (male C57BL/6 mice): 1.17 ± 0.20• %
- Total collagen (mg/ml) in the lungs (male C57BL/6 mice): 23.4 ± 1.7 mg/mL
- Type I collagen (ng/ml) in the lungs (male C57BL/6 mice): 201.6 ± 18 ng/mL
- The number of motile sperm cells (%) (male Wistar rats; group X ± m): 69.06 ± 2.98#*⋄ %
- The number of motile sperm cells (%) (male Wistar rats; individual animals): 67.04% and 56.84% and 78.65% and 59.09% and 72.63% and 66.67% and 66.99% and 85.55% and 68.08%
